Among the data in PubChem BioAssay AID1259407 (Chemical Carcinogenesis Research Information System (CCRIS), 2018) are mutagenic call values, retold here.

Activity calls are given as the source filed them. No rule for the calls is given here.

The subject of the data set is CCRIS mutagenicity, Ames/micronucleus/aberration tests. In words: CCRIS mutagenicity studies.
Setting [1] is: Test System: AMES SALMONELLA TYPHIMURIUM, Strain/Indicator: TA100, Metabolic Activation: NONE, Method: STANDARD PLATE.

Regarding `O=C1c2ccccc2C(=O)c2ccccc21`, the mutagenic call reads like this: (End Point: IN VIVO MICRONUCLEUS, Test System: BONE MARROW POLYCHROMATIC ERYTHROCYTES, Species: MOUSE, Strain/Sex: B6C3F1/MALE, Route: IP INJECTION IN CORN OIL) “inactive; negative”; (End Point: IN VIVO MICRONUCLEUS, Test System: PERIPHERAL BLOOD ERYTHROCYTES, Species: MOUSE, Strain/Sex: B6C3F1/MALE, FEMALE, Route: DIET) “active; positive (at highest dose); (99.8% pure)”; (Test System: AMES SALMONELLA TYPHIMURIUM, Strain/Indicator: TA97, Metabolic Activation: NONE, Method: STANDARD PLATE) “inactive; negative”; (Test System: AMES SALMONELLA TYPHIMURIUM, Strain/Indicator: TA97, Metabolic Activation: RAT, LIVER, S-9, PCB, Method: STANDARD PLATE) “inactive; negative”; (Test System: AMES SALMONELLA TYPHIMURIUM, Strain/Indicator: TA98, Metabolic Activation: HAMSTER, LIVER, S-9, AROCLOR 1254, Method: STANDARD PLATE) “inactive; negative”; (Test System: AMES SALMONELLA TYPHIMURIUM, Strain/Indicator: TA98, Metabolic Activation: NONE, Method: STANDARD PLATE) “inactive; negative”. Moreover, the mutagenic call is “inactive; negative” (Test System: AMES SALMONELLA TYPHIMURIUM, Strain/Indicator: TA98, Metabolic Activation: RAT LIVER S-9, AROCLOR, Method: STANDARD PLATE); “inactive; negative” (Test System: AMES SALMONELLA TYPHIMURIUM, Strain/Indicator: TA98, Metabolic Activation: RAT LIVER S-9, PHENOBARBITAL AND BETA-NAPHTHOFLAVONE (30%), Method: PREINCUBATION); “inactive; negative” (Test System: AMES SALMONELLA TYPHIMURIUM, Strain/Indicator: TA98, Metabolic Activation: RAT LIVER S-9, PHENOBARBITAL AND BETA-NAPHTHOFLAVONE, Method: PREINCUBATION); “inactive; negative; 99.8% pure” (Test System: AMES SALMONELLA TYPHIMURIUM, Strain/Indicator: TA98, Metabolic Activation: RAT, LIVER S-9, AROCLOR 1254 (10%, 30%), Method: PREINCUBATION); “inactive; negative” (Test System: AMES SALMONELLA TYPHIMURIUM, Strain/Indicator: TA98, Metabolic Activation: RAT, LIVER, S-9, AROCLOR 1254, Method: STANDARD PLATE); “inactive; negative” (Test System: AMES SALMONELLA TYPHIMURIUM, Strain/Indicator: TA98, Metabolic Activation: RAT, LIVER, S-9, PCB, Method: STANDARD PLATE). Besides, the mutagenic call by setting is: (Test System: AMES SALMONELLA TYPHIMURIUM, Strain/Indicator: TA100, Metabolic Activation: HAMSTER, LIVER, S-9, AROCLOR 1254, Method: STANDARD PLATE) “inactive; negative”; under setting [1], “inactive; negative”; (Test System: AMES SALMONELLA TYPHIMURIUM, Strain/Indicator: TA100, Metabolic Activation: RAT LIVER S-9, AROCLOR, Method: STANDARD PLATE) “inactive; negative”; (Test System: AMES SALMONELLA TYPHIMURIUM, Strain/Indicator: TA100, Metabolic Activation: RAT LIVER S-9, PHENOBARBITAL AND BETA-NAPHTHOFLAVONE (30%), Method: PREINCUBATION) “inactive; negative”; (Test System: AMES SALMONELLA TYPHIMURIUM, Strain/Indicator: TA100, Metabolic Activation: RAT LIVER S-9, PHENOBARBITAL AND BETA-NAPHTHOFLAVONE, Method: PREINCUBATION) “inactive; negative”; (Test System: AMES SALMONELLA TYPHIMURIUM, Strain/Indicator: TA100, Metabolic Activation: RAT, LIVER S-9, AROCLOR 1254 (10%, 30%), Method: PREINCUBATION) “inactive; negative; 99.8% pure”. The mutagenic call runs as follows: (Test System: AMES SALMONELLA TYPHIMURIUM, Strain/Indicator: TA100, Metabolic Activation: RAT, LIVER, S-9, AROCLOR 1254, Method: STANDARD PLATE) “inactive; negative”; (Test System: AMES SALMONELLA TYPHIMURIUM, Strain/Indicator: TA100, Metabolic Activation: RAT, LIVER, S-9, PCB, Method: STANDARD PLATE) “inactive; negative”; (Test System: AMES SALMONELLA TYPHIMURIUM, Strain/Indicator: TA102, Metabolic Activation: NONE, Method: PREINCUBATION) “inactive; negative; 100% pure”; (Test System: AMES SALMONELLA TYPHIMURIUM, Strain/Indicator: TA102, Metabolic Activation: RAT, LIVER, S-9, AROCLOR 1254 (10%), Method: PREINCUBATION) “inactive; negative; 100% pure”; (Test System: AMES SALMONELLA TYPHIMURIUM, Strain/Indicator: TA102, Metabolic Activation: RAT, LIVER, S-9, AROCLOR 1254, Method: STANDARD PLATE) “inactive; negative”; (Test System: AMES SALMONELLA TYPHIMURIUM, Strain/Indicator: TA1535, Metabolic Activation: HAMSTER, LIVER, S-9, AROCLOR 1254, Method: STANDARD PLATE) “inactive; negative”. Further, the mutagenic call is, setting by setting: (Test System: AMES SALMONELLA TYPHIMURIUM, Strain/Indicator: TA1535, Metabolic Activation: NONE, Method: PREINCUBATION) “inactive; negative”; (Test System: AMES SALMONELLA TYPHIMURIUM, Strain/Indicator: TA1535, Metabolic Activation: NONE, Method: STANDARD PLATE) “inactive; negative”; (Test System: AMES SALMONELLA TYPHIMURIUM, Strain/Indicator: TA1535, Metabolic Activation: RAT LIVER S-9, AROCLOR, Method: STANDARD PLATE) “inactive; negative”; (Test System: AMES SALMONELLA TYPHIMURIUM, Strain/Indicator: TA1535, Metabolic Activation: RAT LIVER S-9, PHENOBARBITAL AND BETA-NAPHTHOFLAVONE (30%), Method: PREINCUBATION) “inactive; negative”; (Test System: AMES SALMONELLA TYPHIMURIUM, Strain/Indicator: TA1535, Metabolic Activation: RAT LIVER S-9, PHENOBARBITAL AND BETA-NAPHTHOFLAVONE, Method: PREINCUBATION) “inactive; negative”; (Test System: AMES SALMONELLA TYPHIMURIUM, Strain/Indicator: TA1535, Metabolic Activation: RAT, LIVER, S-9, AROCLOR 1254, Method: STANDARD PLATE) “inactive; negative”. Also, the mutagenic call by setting is: (Test System: AMES SALMONELLA TYPHIMURIUM, Strain/Indicator: TA1537, Metabolic Activation: HAMSTER, LIVER, S-9, AROCLOR 1254, Method: STANDARD PLATE) “inactive; negative”; (Test System: AMES SALMONELLA TYPHIMURIUM, Strain/Indicator: TA1537, Metabolic Activation: NONE, Method: STANDARD PLATE) “inactive; negative”; (Test System: AMES SALMONELLA TYPHIMURIUM, Strain/Indicator: TA1537, Metabolic Activation: RAT LIVER S-9, AROCLOR, Method: STANDARD PLATE) “inactive; negative”; (Test System: AMES SALMONELLA TYPHIMURIUM, Strain/Indicator: TA1537, Metabolic Activation: RAT LIVER S-9, PHENOBARBITAL AND BETA-NAPHTHOFLAVONE (30%), Method: PREINCUBATION) “active; positive”; (Test System: AMES SALMONELLA TYPHIMURIUM, Strain/Indicator: TA1537, Metabolic Activation: RAT LIVER S-9, PHENOBARBITAL AND BETA-NAPHTHOFLAVONE, Method: PREINCUBATION) “inactive; negative”; (Test System: AMES SALMONELLA TYPHIMURIUM, Strain/Indicator: TA1537, Metabolic Activation: RAT, LIVER S-9, AROCLOR 1254 (10%, 30%), Method: PREINCUBATION) “inactive; negative; 99.8% pure”. The mutagenic call was “inactive; negative” (Test System: AMES SALMONELLA TYPHIMURIUM, Strain/Indicator: TA1537, Metabolic Activation: RAT, LIVER, S-9, AROCLOR 1254, Method: STANDARD PLATE); “inactive; negative” (Test System: E. COLI, Strain/Indicator: WP2 UVRA, Metabolic Activation: NONE, Method: STANDARD PLATE); “inactive; negative” (Test System: E. COLI, Strain/Indicator: WP2 UVRA, Metabolic Activation: RAT LIVER S-9, AROCLOR, Method: STANDARD PLATE); “inactive; negative” (Test System: E.COLI, Strain/Indicator: WP2UVRA, Metabolic Activation: NONE, Method: PREINCUBATION); “inactive; negative” (Test System: E.COLI, Strain/Indicator: WP2UVRA, Metabolic Activation: RAT LIVER S-9, PHENOBARBITAL AND BETA-NAPHTHOFLAVONE (30%), Method: PREINCUBATION); “inactive; negative” (Test System: E.COLI, Strain/Indicator: WP2UVRA, Metabolic Activation: RAT LIVER S-9, PHENOBARBITAL AND BETA-NAPHTHOFLAVONE, Method: PREINCUBATION). For the same compound, the mutagenic call is, setting by setting: (Test System: MOUSE LYMPHOMA, Strain/Indicator: L5178Y (TK+/TK-), Metabolic Activation: NONE, Method: SUSPENSION/PLATE) “inactive; negative”; (Test System: MOUSE LYMPHOMA, Strain/Indicator: L5178Y (TK+/TK-), Metabolic Activation: RAT LIVER S-9, AROCLOR, Method: SUSPENSION/PLATE) “inactive; negative”.
On to `CC(=O)ON(OCc1ccc([N+](=O)[O-])cc1)C(=O)c1ccccc1`, for which the mutagenic call is “active; positive” under setting [1] and “active; positive” (Test System: AMES SALMONELLA TYPHIMURIUM, Strain/Indicator: TA100, Metabolic Activation: RAT, S-9, AROCLOR, Method: STANDARD PLATE).
As for `CC(/C=C(/C#N)c1ccc(Br)cc1)C(c1ccccc1)C(C#N)c1ccc(Br)cc1` (configuration not stated), for the setting “Test System: AMES SALMONELLA TYPHIMURIUM, Strain/Indicator: TA97A, Metabolic Activation: NONE, Method: STANDARD PLATE”, the mutagenic call is “inactive; negative”.
